According to ChEMBL document CHEMBL1130278, “Synthesis and structure-activity relationships of 3,7-dimethyl-1-propargylxanthine derivatives, A2A-selective adenosine receptor antagonists” (J Med Chem, 1997):

Key:
[1] = molecular target: T1, Adenosine receptor A1 (Rattus norvegicus, UniProt P25099); assay: Ability to inhibit binding of [3H]CHA to adenosine A1 receptor in rat brain cortical membranes.; format: cell membranes, Membrane
T1 sequence (P25099 whole entry): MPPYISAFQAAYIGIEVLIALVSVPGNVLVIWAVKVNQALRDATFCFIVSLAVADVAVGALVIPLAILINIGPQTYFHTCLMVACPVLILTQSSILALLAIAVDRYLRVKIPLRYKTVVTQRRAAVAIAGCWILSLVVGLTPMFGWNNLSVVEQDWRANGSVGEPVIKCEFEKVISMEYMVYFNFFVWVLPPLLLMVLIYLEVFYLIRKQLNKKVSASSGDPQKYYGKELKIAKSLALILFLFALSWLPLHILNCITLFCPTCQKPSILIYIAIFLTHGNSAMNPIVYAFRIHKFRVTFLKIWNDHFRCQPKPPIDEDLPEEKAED

[2] = molecular target: T2, Adenosine receptor A2a (Rattus norvegicus, UniProt P30543)
Description: Ability to inhibit binding of [3H]-CGS- 21680 to adenosine A2A receptor in rat brain striatal membranes.

[3] = molecular target: T1, Adenosine receptor A1; assay: Ability to inhibit binding of [3H]R-PIA to Adenosine A1 receptor in rat brain cortical membranes; format: cell membranes, Membrane
[4] = molecular target: T2, Adenosine receptor A2a; remark: listed apart in the source
Description: Ability to inhibit binding of [3H]NECA to Adenosine A2A receptor in rat brain striatal membranes

[5] = molecular target: T3, Adenosine receptor A3 (Rattus norvegicus, UniProt P28647); assay: Inhibitory activity against rat adenosine A3 receptor; inactive up to 10 uM concentration; IA = Inactive
T3 sequence (P28647 whole entry): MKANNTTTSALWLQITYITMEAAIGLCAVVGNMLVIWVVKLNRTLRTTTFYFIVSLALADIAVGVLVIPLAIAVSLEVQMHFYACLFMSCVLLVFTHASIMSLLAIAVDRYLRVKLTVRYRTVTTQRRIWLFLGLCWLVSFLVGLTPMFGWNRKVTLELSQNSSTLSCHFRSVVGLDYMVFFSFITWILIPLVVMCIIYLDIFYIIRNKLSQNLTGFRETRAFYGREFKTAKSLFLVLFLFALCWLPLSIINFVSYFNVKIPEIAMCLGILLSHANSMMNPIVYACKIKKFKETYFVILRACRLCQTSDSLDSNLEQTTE

[6] = molecular target: T4, Adenosine receptor A1 (Rattus norvegicus) (UniProt P25099); assay: Inhibition of [3H]CHA binding to Adenosine A1 receptor of rat brain cortical membranes; format: cell membranes; details: Membrane, concentration not given here
T4 sequence (whole entry): T1 sequence (P25099 whole entry)

[7] = molecular target: T5, Adenosine receptor A2b (Homo sapiens, UniProt P29275); assay: Binding affinity for human Adenosine A2B receptor at 10 uM; IA = Inactive
T5 sequence (P29275 whole entry): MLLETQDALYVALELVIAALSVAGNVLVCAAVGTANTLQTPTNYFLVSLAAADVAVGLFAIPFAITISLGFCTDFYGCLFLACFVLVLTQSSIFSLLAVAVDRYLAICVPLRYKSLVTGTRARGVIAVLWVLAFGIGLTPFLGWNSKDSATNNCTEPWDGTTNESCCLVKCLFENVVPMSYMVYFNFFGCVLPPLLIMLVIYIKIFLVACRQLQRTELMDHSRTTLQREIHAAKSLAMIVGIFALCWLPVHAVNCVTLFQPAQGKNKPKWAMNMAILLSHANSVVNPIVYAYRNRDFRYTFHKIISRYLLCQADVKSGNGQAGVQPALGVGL

[8] = molecular target: T6, Adenosine receptor A3 (Homo sapiens, UniProt P0DMS8); assay: Binding affinity for human Adenosine A3 receptor at 10 uM; IA = Inactive
T6 sequence (P0DMS8 whole entry): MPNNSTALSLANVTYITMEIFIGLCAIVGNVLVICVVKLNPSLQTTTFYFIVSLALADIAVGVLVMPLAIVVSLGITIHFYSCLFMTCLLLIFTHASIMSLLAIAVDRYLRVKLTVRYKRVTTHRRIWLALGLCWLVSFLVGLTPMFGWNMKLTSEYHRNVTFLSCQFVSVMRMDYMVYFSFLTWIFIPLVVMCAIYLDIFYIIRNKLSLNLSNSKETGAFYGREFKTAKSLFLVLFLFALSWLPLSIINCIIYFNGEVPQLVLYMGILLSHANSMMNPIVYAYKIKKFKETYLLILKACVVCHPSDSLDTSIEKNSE

T2 sequence (P30543 whole entry): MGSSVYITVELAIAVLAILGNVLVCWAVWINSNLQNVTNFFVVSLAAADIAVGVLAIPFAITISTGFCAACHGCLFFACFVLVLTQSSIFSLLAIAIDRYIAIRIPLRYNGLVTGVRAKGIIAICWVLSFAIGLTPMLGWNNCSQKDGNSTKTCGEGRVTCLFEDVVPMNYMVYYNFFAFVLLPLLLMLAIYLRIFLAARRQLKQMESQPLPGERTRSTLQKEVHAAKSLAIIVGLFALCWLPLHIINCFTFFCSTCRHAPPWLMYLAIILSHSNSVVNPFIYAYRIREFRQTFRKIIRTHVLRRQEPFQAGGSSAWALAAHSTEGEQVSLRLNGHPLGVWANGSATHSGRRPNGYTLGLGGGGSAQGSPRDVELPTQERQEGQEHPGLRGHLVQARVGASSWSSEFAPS

Compound | Ki [1] | Ki [2] | other results
C#CCn1c(=O)c2c(nc(C3CCCCC3)n2C)n(C)c1=O | 2.8 µM | 4.5 µM | 
C#CCn1c(=O)c2c(ncn2C)n(C)c1=O | 12 µM | 8.6 µM | 
C#CCn1c(=O)c2[nH]c(/C=C/c3ccc4c(c3)OCO4)nc2n(C)c1=O | 0.84 µM | 0.17 µM | 
C#CCn1c(=O)c2c(nc(/C=C/c3cccc(Cl)c3)n2C)n(CC(C)C)c1=O | 0.24 µM | 0.015 µM | 
C#CCn1c(=O)c2c(nc(/C=C/c3ccco3)n2C)n(C)c1=O | 1.9 µM | 0.25 µM | 
C#CCn1c(=O)c2c(nc(/C=C/c3ccccc3)n2C)n(C)c1=O | 1.1 µM | 0.027 µM | Ki [3]: 2.7 µM; Ki [4]: 0.14 µM
C#CCn1c(=O)c2c(nc(/C=C/c3cccc(Cl)c3)n2C)n(Cc2ccccc2)c1=O | 2.3 µM | 0.068 µM | 
C#CCn1c(=O)c2[nH]cnc2n(Cc2ccccc2)c1=O | 0.86 µM | 0.88 µM | 
C#CCn1c(=O)c2c(nc(/C=C/c3ccc4c(c3)OCO4)n2C)n(C)c1=O | 1.5 µM | 0.035 µM | 
CCCn1c(=O)c2c(nc(/C=C/c3cccc(Cl)c3)n2C)n(C)c1=O | 0.54 µM | 0.031 µM | 
C#CCn1c(=O)c2c(nc(/C=C/c3cccc(Cl)c3)n2C)n(C)c1=O | 1.3 µM | 0.013 µM | Ki [3]: 2.5 µM; Ki [4]: 0.047 µM
C#CCn1c(=O)c2c(nc(-c3ccccc3)n2C)n(C)c1=O | 3.2 µM | 3.3 µM | Ki [4]: 6.4 µM
C#CCn1c(=O)c2[nH]c(/C=C/c3cccc(Cl)c3)nc2n(C)c1=O |  |  | Ki [3]: 0.25 µM; Ki [4]: 0.41 µM
C#CCn1c(=O)c2c(nc(/C=C/c3cccc(Cl)c3)n2C)n(CCC)c1=O | 0.102 µM | 0.0051 µM | 
C#CCn1c(=O)c2c(nc(/C=C/c3cccs3)n2C)n(C)c1=O | 4.1 µM | 0.34 µM | 
Cn1c(=O)c2c(nc(-c3ccccc3)n2C)n(C)c1=O | 33 µM | 19 µM | Ki [4]: 25 µM

Compound | Ki [1] | Ki [2] | other results
C=CCn1c(=O)c2c(nc(/C=C/c3ccccc3)n2C)n(C)c1=O | 9.2 µM | 0.063 µM | 
C#CCn1c(=O)c2c(nc(-c3cccs3)n2C)n(C)c1=O | 0.95 µM | 1.8 µM | 
Cn1c(=O)c2c(nc(/C=C/c3cccc(Cl)c3)n2C)n(C)c1=O |  |  | Ki [5]: Not Active; inhibition [6]: 17%
C#CCn1c(=O)c2c(nc(/C=C/c3ccsc3)n2C)n(C)c1=O | 0.75 µM | 0.024 µM | 
CC(C)Cn1c(=O)n(C)c(=O)c2c1nc(-c1ccccc1)n2C | 4.4 µM | 14 µM | 
C#CCn1c(=O)c2c(nc(/C=C/c3cccc(Br)c3)n2C)n(C)c1=O | 1.2 µM | 0.0082 µM | Ki [7]: Not Active; Ki [8]: Not Active
COc1ccc(/C=C/c2nc3c(c(=O)n(C)c(=O)n3C)n2C)cc1OC | 9.6 µM | 0.018 µM | 
C#CCn1c(=O)c2c(nc(/C=C/c3cccc(Cl)c3)n2CC#C)n(C)c1=O | 0.2 µM | 0.061 µM | 
C#CCn1c(-c2ccccc2)nc2c1c(=O)n(C)c(=O)n2CC(C)C | 2.8 µM | 3.5 µM | 
C#CCn1c(=O)c2[nH]c(/C=C/c3cccc(Cl)c3)nc2n(CC(C)C)c1=O | 0.083 µM | 0.046 µM | 
C#CCn1c(=O)c2[nH]cnc2n(C)c1=O |  |  | Ki [4]: 4.8 µM
C#CCn1c(=O)[nH]c2nc(-c3cccs3)[nH]c2c1=O | 0.18 µM | 0.56 µM | Ki [3]: 0.12 µM; Ki [4]: 5.1 µM
C#CCn1c(=O)[nH]c2[nH]c(/C=C/c3ccccc3)nc2c1=O | 1.3 µM | 0.31 µM | Ki [3]: 2.1 µM; Ki [4]: 1.9 µM
C#CCn1c(=O)c2c(nc(/C=C/c3ccc(OC)c(OC)c3)n2C)n(C)c1=O | 2.5 µM | 0.015 µM | 
CCCn1c(=O)c2c(nc(/C=C/c3ccc(OC)c(OC)c3)n2C)n(CCC)c1=O | 0.26 µM |  | 
